Test results from PMC9502272, “A Metabolomics Approach for Predicting OATP1B-Type Transporter-Mediated Drug–Drug Interaction Liabilities” (Pharmaceutics, 2022).
pIC50: −log10 of the molar value. Like-named read-outs stand apart in the source and are kept apart here.

Assays:
Oatp1a/1b = assay: Baseline plasma biomarker levels in Oatp1a/1b(−/−) cluster-knockout vs wild-type mice; format: in vivo, mouse
Protocol: Plasma concentrations of levels of CDCA-24G and glycochenodeoxycholate-3-sulfate (GCDCA-S) were determined using LC-MS/MS using a Vanquish UHPLC coupled with a Quantiva triple quadrupole mass spectrometer (Thermo Fisher Scientific, Waltham, MA, USA). An Accucore aQ column (50 × 2.1 mm, dp = 2.6 μm; Thermo Fisher Scientific) was protected by a C18 AQUASIL guard cartridge (2.1 mm × 10 mm, dp = 3 μm; Thermo Fisher Scientific). The injection volume of sample was 5.0 μL. The temperature of the autosampler rack was 4 °C, and the temperature of the column was maintained at 20 °C. The mobile phase was composed of solvent A (2 mmol ammonium acetate in water) and solvent B (100% methanol), and the total run time was 4.6 min. The gradient conditions were as follows: 0–0.5 min, 45% B; 0.5–2.0 min, 45 to 90%, 2.0–4.0 min, 90% B; 4.0–4.6 min, 45% B, delivered at a flow rate of 0.4 mL/min. The MS assay setting with the positive voltage applied to the ESI capillary was set at 3791 V, and the capillary temperatures was 335 °C with a vaporizer temperature of 350 °C. Argon was used as the collision gas at a pressure of 1.5 mTorr. Precursor molecular ions, and product ions were recorded for the confirmation and detection of GCDCA-S (528.4 > 448.3) and CDCA-24G (567.4 > 391.1), using [^2H5]-GCDCA-S (535.5 > 453.3) and [^2H5]-CDCA-24G (572.5 > 396.1) as respective internal standards. The lower limit of quantitation (LLOQ) for both analytes was determined to be 0.5 ng/mL. […]
Plasma concentrations of coproporphyrin I (CP-I) and III (CP-III) were determined similarly by LC-MS/MS. […] Precursor molecular ions and product ions were recorded for confirmation and detection of CP-I (655.4 > 596.4) and CP-III (655.4 > 596.3), using [^2H4]-CP-III (659.4 > 600.3) as the internal standard for both analytes. The LLOQ for both analytes were determined to be 1 ng/mL, and the within-run and between-run precisions as well as the accuracy were always within acceptable limits.

OATP1B [1] = assay: Clinical study: OATP1B biomarkers in patients receiving cabazitaxel; format: in vivo, human; settings: cabazitaxel 1 h i.v. infusion up to 25 mg/m^2
Text: Samples from patients with solid tumors were collected from 3 clinical studies conducted in accordance with the principles of the Declaration of Helsinki, and all study protocols were approved by Institutional Review Boards at either the National Cancer Institute (Bethesda, MD, USA) or the Erasmus Medical Center Cancer Institute (Rotterdam, The Netherlands). All patients provided written informed consent for their blood samples and medical information to be used for research purposes.
An Accucore aQ column (50 × 2.1 mm, dp = 2.6 μm; Thermo Fisher Scientific) was protected by a C18 AQUASIL guard cartridge (2.1 mm × 10 mm, dp = 3 μm; Thermo Fisher Scientific). The injection volume of sample was 5.0 μL. The temperature of the autosampler rack was 4 °C, and the temperature of the column was maintained at 20 °C. The mobile phase was composed of solvent A (2 mmol ammonium acetate in water) and solvent B (100% methanol), and the total run time was 4.6 min. The gradient conditions were as follows: 0–0.5 min, 45% B; 0.5–2.0 min, 45 to 90%, 2.0–4.0 min, 90% B; 4.0–4.6 min, 45% B, delivered at a flow rate of 0.4 mL/min. The MS assay setting with the positive voltage applied to the ESI capillary was set at 3791 V, and the capillary temperatures was 335 °C with a vaporizer temperature of 350 °C. […] The lower limit of quantitation (LLOQ) for both analytes was determined to be 0.5 ng/mL. […]

[2] = parameters: method as in ref PMIDs of Table S2 (18321482, 35456528, 28612269, 10997930, 27796539, 23299792, 11129729, 22808947, 12844327); settings: ref PMIDs of Table S2 (18321482, 35456528, 28612269, 10997930, 27796539, 23299792, 11129729, 22808947, 12844327); cited from earlier work
[3] = molecular target: T1, OATP1B-type transporters (Oatp1b2) (Mus musculus, UniProt Q9JJL3); assay: Murine pharmacokinetic study: influence of OATP1B inhibitors on plasma CDCA-24G in wild-type mice; format: in vivo; settings: rifampin 20 mg/kg i.v. or paclitaxel 10 mg/kg i.v.
T1 construct: was performed in wild-type mice and Oatp1b2(−/−) mice; from tissue; host or cells: living wild-type mice (DBA/1LacJ or FVB background); hepatic transporter in vivo
T1 sequence (Q9JJL3 1-689): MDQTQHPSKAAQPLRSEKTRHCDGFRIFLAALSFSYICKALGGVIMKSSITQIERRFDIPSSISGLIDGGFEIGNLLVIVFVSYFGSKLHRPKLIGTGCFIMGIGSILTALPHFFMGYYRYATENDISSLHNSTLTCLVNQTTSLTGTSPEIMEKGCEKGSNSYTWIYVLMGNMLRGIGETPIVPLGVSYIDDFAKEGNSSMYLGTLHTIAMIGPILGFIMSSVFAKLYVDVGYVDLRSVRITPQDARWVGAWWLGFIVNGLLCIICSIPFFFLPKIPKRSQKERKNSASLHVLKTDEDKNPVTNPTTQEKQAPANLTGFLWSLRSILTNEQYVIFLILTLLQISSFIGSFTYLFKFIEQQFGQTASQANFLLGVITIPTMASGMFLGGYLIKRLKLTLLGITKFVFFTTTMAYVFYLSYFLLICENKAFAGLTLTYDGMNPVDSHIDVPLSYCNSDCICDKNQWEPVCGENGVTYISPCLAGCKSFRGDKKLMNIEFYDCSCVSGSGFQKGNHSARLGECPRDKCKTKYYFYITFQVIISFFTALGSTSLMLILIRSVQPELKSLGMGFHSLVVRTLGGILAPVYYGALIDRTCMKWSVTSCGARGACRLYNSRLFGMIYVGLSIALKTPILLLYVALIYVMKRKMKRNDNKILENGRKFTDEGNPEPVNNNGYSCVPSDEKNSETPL
Protocol: In these experiments, serial whole blood samples were collected in heparinized tubes immediately prior to drug administration (pre-dose) and at 0.25, 0.5, 1, 2, and 4 h after administration from the submandibular vein for the initial three time-points, from the retro-orbital sinus vein for the subsequent two time-points, and by cardiac puncture at the terminal time-point. Whole blood samples were centrifuged at 11,000 rpm for 5 min; then, the plasma supernatants were collected and stored at −80 °C until analysis by a validated method based on LC-MS/MS.
An Accucore aQ column (50 × 2.1 mm, dp = 2.6 μm; Thermo Fisher Scientific) was protected by a C18 AQUASIL guard cartridge (2.1 mm × 10 mm, dp = 3 μm; Thermo Fisher Scientific). The injection volume of sample was 5.0 μL. The temperature of the autosampler rack was 4 °C, and the temperature of the column was maintained at 20 °C. The mobile phase was composed of solvent A (2 mmol ammonium acetate in water) and solvent B (100% methanol), and the total run time was 4.6 min. […]
(§1) Pharmacokinetic parameters were derived from non-compartmental analysis using Phoenix WinNonlin version 8.0 (Certara, Princeton, NJ, USA). The peak plasma concentration (Cmax) was determined by visual inspection of the data from the concentration–time curves. […]

OATP1B [4] = settings: patients, paclitaxel (Taxol) 1 h i.v. infusion, 50 or 100 mg/m^2; dose-dependent
Protocol: An Accucore aQ column (50 × 2.1 mm, dp = 2.6 μm; Thermo Fisher Scientific) was protected by a C18 AQUASIL guard cartridge (2.1 mm × 10 mm, dp = 3 μm; Thermo Fisher Scientific). The injection volume of sample was 5.0 μL. The temperature of the autosampler rack was 4 °C, and the temperature of the column was maintained at 20 °C. The mobile phase was composed of solvent A (2 mmol ammonium acetate in water) and solvent B (100% methanol), and the total run time was 4.6 min. The gradient conditions were as follows: 0–0.5 min, 45% B; 0.5–2.0 min, 45 to 90%, 2.0–4.0 min, 90% B; 4.0–4.6 min, 45% B, delivered at a flow rate of 0.4 mL/min. The MS assay setting with the positive voltage applied to the ESI capillary was set at 3791 V, and the capillary temperatures was 335 °C with a vaporizer temperature of 350 °C. Argon was used as the collision gas at a pressure of 1.5 mTorr. […] The lower limit of quantitation (LLOQ) for both analytes was determined to be 0.5 ng/mL. […]
as §1

OATP1B3 = system: OATP1B3; parameters: method as in ref PMIDs of Table S2 (18321482, 35456528, 28612269, 10997930, 11129729, 22808947, 12844327); settings: ref PMIDs of Table S2 (18321482, 35456528, 28612269, 10997930, 11129729, 22808947, 12844327); cited from earlier work
OATP1B1 = molecular target: T2, OATP1B1 (Homo sapiens, UniProt Q9Y6L6); parameters: method as in ref PMIDs of Table S2 (18321482, 35456528, 28612269, 10997930, 11129729, 22808947, 12844327); settings: ref PMIDs of Table S2 (18321482, 35456528, 28612269, 10997930, 11129729, 22808947, 12844327); cited from earlier work
T2 construct: expressed in transfected cells; host or cells: HEK293 (ATCC)
T2 sequence (Q9Y6L6 1-691): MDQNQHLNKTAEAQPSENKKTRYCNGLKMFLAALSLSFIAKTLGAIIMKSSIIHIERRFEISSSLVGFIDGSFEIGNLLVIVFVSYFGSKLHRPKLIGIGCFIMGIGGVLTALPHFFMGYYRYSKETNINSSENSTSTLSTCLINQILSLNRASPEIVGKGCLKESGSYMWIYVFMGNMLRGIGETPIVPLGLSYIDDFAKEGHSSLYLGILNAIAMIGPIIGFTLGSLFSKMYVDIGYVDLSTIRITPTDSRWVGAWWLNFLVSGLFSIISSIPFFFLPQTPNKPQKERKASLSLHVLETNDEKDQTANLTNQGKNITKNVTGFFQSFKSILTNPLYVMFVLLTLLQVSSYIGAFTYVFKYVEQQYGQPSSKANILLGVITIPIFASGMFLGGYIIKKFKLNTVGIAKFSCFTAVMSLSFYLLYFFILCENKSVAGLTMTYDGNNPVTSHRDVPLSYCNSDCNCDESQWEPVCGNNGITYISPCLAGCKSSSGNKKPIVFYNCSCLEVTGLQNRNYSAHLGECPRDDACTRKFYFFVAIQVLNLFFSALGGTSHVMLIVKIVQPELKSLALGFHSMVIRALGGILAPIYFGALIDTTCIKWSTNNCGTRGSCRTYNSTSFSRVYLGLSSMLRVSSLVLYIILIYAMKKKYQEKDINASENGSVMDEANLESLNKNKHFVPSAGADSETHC

Compound | Observed changes in plasma levels in Oatp1a/1b(−/−), OATP1B1(tg) or OATP1B3(tg) mice vs wild type, compared with CDCA-24G (Oatp1a/1b) | Cmax [2] | Effect on circulating levels of CDCA-24G [3] | pIC50 (OATP1B3) | further results
coproporphyrin III [CP-III] | much more modest |  |  |  | 
CO[C@H]1C(=O)[C@]2(C)[C@@H](OC)C[C@H]3OC[C@@]3(OC(C)=O)[C@H]2[C@H](OC(=O)c2ccccc2)[C@]2(O)C[C@H](OC(=O)[C@H](O)[C@@H](NC(=O)OC(C)(C)C)c3ccccc3)C(C)=C1C2(C)C [Cabazitaxel, cabazitaxel] |  | 0.193 µM |  |  | Effect on plasma levels of CDCA-24G (OATP1B [1]): not associated with elevated plasma levels; Effect on plasma levels of GCDCA-S (OATP1B [1]): not associated with elevated plasma levels
coproporphyrin I [CP-I] | much more modest |  |  |  | 
CC(=O)O[C@H]1C(=O)[C@@]2(C)[C@H]([C@H](OC(=O)c3ccccc3)[C@]3(O)C[C@H](OC(=O)[C@H](O)[C@@H](NC(=O)c4ccccc4)c4ccccc4)C(C)=C1C3(C)C)[C@]1(OC(C)=O)CO[C@@H]1C[C@@H]2O [Paclitaxel, paclitaxel] |  | 9.6 µM | transient, statistically significant increase | 6.30 | Effect on plasma levels of CDCA-24G (OATP1B [4]): elevated
CO[C@H]1/C=C/O[C@@]2(C)Oc3c(C)c(O)c4c(O)c(c(/C=N/N5CCN(C)CC5)c(O)c4c3C2=O)NC(=O)/C(C)=C\C=C\[C@H](C)[C@H](O)[C@@H](C)[C@@H](O)[C@@H](C)[C@H](OC(C)=O)[C@@H]1C [Rifampin, rifampin] |  | 29 µM | transient, statistically significant increase | 5.59 | pIC50 (OATP1B1): 5.82
